Results reported in patent US20230416684A1, “COMPOSITION FOR PREVENTING OR TREATING MUSCLE DISEASES, CONTAINING STEM CELLS IN WHICH GRO-ALPHA IS EXPRESSED OR GRO-ALPHA” (SAMSUNG LIFE PUBLIC WELFARE FOUNDATION, priority 2020, published 2023).

Assays:
C2C12 cells [1] = assay: Cell morphology and cell viability of lovastatin death-induced C2C12 cells treated with GSK′872 and GRO-α individually or in combination; assay type: cell-based, mouse; details: GRO-α 200 μg/mL; for cell proliferation (cell morphology) / cell viability: GSK 3 μm pretreatment 3 hours; for cell proliferation (cell morphology): cultured for 48, FIG. 5A; for cell viability: cultured for 48, FIG. 5B
Experimental: Inhibitory effects of GSK′827 and GRO-α, known as […] that block the RIP-3 pathway, on cell death of skeletal muscle myoblasts were compared. In detail, skeletal muscle myoblasts of the cell death-induced mouse by lovastatin treatment were pretreated with 3 μm of GSK′827 for 3 hours, followed by washing with 1×PBS. The medium was replaced by a serum-free medium, and GRO-α was diluted therein to a final concentration of […]/mL. Then, the cells were treated with GRO-α and GSK′827 individually or in combination, followed by culturing for 48 to observe the cell morphology.

phospho-MLKL = assay: Western blot of phospho-MLKL in muscles of MDX mouse injected with WJ-MSCs or GRO-α; assay type: in vivo; details: muscles of MDX mouse after injection; protein level, FIG. 6B
Experimental: (§1) Based on the results of Examples 1 to 3, the efficacy of GRO-α on prevention or treatment of muscle diseases was confirmed in an MDX mouse (a mouse model for duchenne muscular dystrophy). In detail, the MDX mouse was intravenously and intraperitoneally injected with each of WJ-MSC and GRO-α. After one week, blood was collected from the heart of the mouse, centrifuged at 15,500×g for 10 minutes to separate serum, and then, activity of creatine kinase was measured.
(§2) The expression levels of necrosis markers in muscles of the […] injected with WJ-MSCs and GRO-α were confirmed in Example 4-1. In detail, the muscle tissue of the mouse was ground with liquid nitrogen into a minimum size in a mortar, added to an E-tube, and then subjected to sonication with lysis buffer (urea+RIPA=1:1). Afterwards, the supernatant was collected, and proteins in the tissue were quantified according to the Bradford assay (Bio-rad, USA). Then, proteins were detected by using western blot.

[2] = system: necrosis markers in C2C12 cells; assay: Western blotting of necrosis markers in lovastatin death-induced C2C12 cells treated with GRO-α at different concentrations; assay type: cell-based, mouse; details: FIGS. 4C and 4D
Experimental: To confirm the inhibitory effects of the PL-MSCs and WJ-MSCs on the cell death, apoptosis markers and necrosis markers expressed in the mouse skeletal muscle myoblasts were confirmed by western blotting. In detail, after collecting the cells and breaking the cell membrane by using a buffer in which RIPA buffer and urea buffer were mixed at a ratio of 1:1, centrifugation was performed thereon, and the supernatant thus obtained was collected and subjected to the Bradford assay (Bio-rad, USA) to quantify proteins in the cells. After loading 20 μg of the proteins of from each sample on a gel, electrophoresis was performed on the gel by using SDS. After transferring the proteins to a polyvinylidene fluoride (PVDF) membrane, a 1× tris-buffered saline with 0.1% Tween 20 (TBST) solution to which 5% skimmed milk (BD Difco, USA) was added, followed by culturing at room temperature for 1 hour. Afterwards, the proteins were treated with PARP (1:1000, Cell signaling, USA), cleaved caspase-3 (1:1000, Cell signaling, USA), phospho-RIP3 (1:1000, Cell signaling, USA), and phospho-MLKL (1:1000, Cell signaling, USA) and beta actin (1:5000; Santa Cruz, USA) antibodies, followed by culturing overnight at 4° C. Next, the proteins were treated with secondary antibodies (anti-Rabbbit IgG-HRP; ABCIon, Korea) at room temperature for 1 hour, and blots were developed by using ECL (Bio-rad, USA). […]

phospho-RIP3 = assay: Western blot of phospho-RIP3 in muscles of MDX mouse injected with WJ-MSCs or GRO-α; assay type: in vivo; details: muscles of MDX mouse after injection; protein level, FIG. 6C
Experimental: as §1, §2

C2C12 cells [3] = assay: Cell morphology and cell viability of lovastatin death-induced C2C12 cells treated with GRO-α at different concentrations; assay type: cell-based, mouse
[4] = system: necrosis markers in C2C12 cells; assay: Western blotting of necrosis markers in lovastatin death-induced C2C12 cells treated with GSK′872 and GRO-α individually or in combination; assay type: cell-based, mouse; details: FIGS. 5C and 5D
[5] = system: MDX mouse (a mouse model for duchenne muscular dystrophy); assay: Activity of creatine kinase in serum of MDX mouse injected with WJ-MSC or GRO-α; assay type: in vivo; details: intravenous and intraperitoneal injection, serum after one week, FIG. 6A
Experimental: as §1

Molecule	cell proliferation (cell morphology) (C2C12 cells [1])	cell viability (C2C12 cells [1])	expression of phospho-MLKL, decrease (phospho-MLKL) [%]	expression of necrosis markers [2]	cell viability compared to the group treated with GSK′872 (C2C12 cells [1]; FIG. 5B)	expression of phospho-RIP3, decrease (phospho-RIP3) [%]	cell viability, among concentration groups (C2C12 cells [3]; group treated with 100 ng/mL of GRO-α, FIG. 4B)	cell proliferation rate (C2C12 cells [3]; lovastatin death-induced C2C12 cells treated with GRO-α, FIG. 4A)	cell viability (C2C12 cells [3]; lovastatin death-induced C2C12 cells, after 24 hours of treatment with GRO-α, FIG. 4B)	inhibitory effect on the expression of necrosis markers compared to GSK′872 [4]	expression of markers involved in necrosis compared to the control group ([4]; GRO-α 200 μg/mL)	activity of creatine kinase, decrease [5] [%]
CC(C)S(=O)(=O)c1ccc2nccc(Nc3ccc4scnc4c3)c2c1 [GSK′872, reference compound]	proliferated	significant increase										
growth-regulated oncogene-alpha (GRO-α)	proliferated	significant increase	76	inhibited the expression of the necrosis markers in a concentration-dependent manner	high	70	the highest	increased	significantly increased	excellent inhibitory effect	reduced the expression of all markers involved in necrosis	75
